Laboratory results as given in patent US9546173B2 (Novartis AG, priority 2012, dated 2017).

biological target: activated ERK2 (Homo sapiens (Human), UniProt P28482); assay: Activated ERK2 kinase assay (AlphaScreen, ERKtide peptide phosphorylation); format: biochemical; details: […] ERK2, 200 nM ERKtide peptide, 35 μM ATP, 30 min preincubation; read-out: ERK2 IC50
Text: Production of Activated ERK2 Protein:
Activated ERK2 protein was generated in insect cells by co-expression with a constitutively active form of MEK1. The ERK2 protein was expressed and purified as a nHis-PreScission-ERK2 tagged protein and then proteolytically processed to the full-length wild-type protein. […] Double-phosphorylated ERK2 protein was purified from the mixture by mono-Q column separation.
Activated ERK2 Kinase Assay:
A 16-point, half-log dilution series of compounds at 41× final concentration was used for generating IC50 curves. Compound dilution series were prepared in 100% DMSO. ERK2 was preincubated with compounds for 30 minutes at ambient temperature. Reaction was initiated by addition of a substrate cocktail of ERKtide peptide and ATP and was allowed to proceed for 2-3 hours at ambient temperature. Reaction was terminated by addition of 10 μL of a 2× stop buffer consisting of 100 mM Tris-Cl [pH 7.5], 25 mM EDTA, 0.01% Tween 20, 10 μg/mL of AlphaScreen Protein A Acceptor Beads, 10 μg/mL of Streptavidin Donor Beads (PerkinElmer, Waltham, Mass.), and 1.4 μg/mL phospho-EGF Receptor (Thr669) antibody (Cat #3056, Cell Signaling Technology, Danvers, Mass.). Terminated reactions were read, after overnight incubation in the dark, on an EnVision Multilabel Plate Reader (PerkinElmer, Waltham, Mass.), with excitation and emission wavelengths set to 680 nm and 570 nm, respectively. IC50 values were determined using a four-parameter fit.

Sequence of activated ERK2 (P28482 whole entry): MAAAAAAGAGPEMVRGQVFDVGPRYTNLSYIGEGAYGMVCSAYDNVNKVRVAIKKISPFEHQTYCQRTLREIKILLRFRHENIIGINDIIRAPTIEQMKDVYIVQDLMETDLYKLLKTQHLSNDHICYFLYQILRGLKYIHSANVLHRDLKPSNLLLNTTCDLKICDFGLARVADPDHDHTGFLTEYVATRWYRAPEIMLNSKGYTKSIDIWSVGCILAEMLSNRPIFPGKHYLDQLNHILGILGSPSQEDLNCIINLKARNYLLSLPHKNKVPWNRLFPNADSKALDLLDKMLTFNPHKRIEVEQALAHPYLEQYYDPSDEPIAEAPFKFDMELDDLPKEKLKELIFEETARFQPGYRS

IC50 [nM]	SMILES
14	CC1(C)c2cnc(NC3CCOCC3)nc2CN1C(=O)N[C@H](CO)c1ccccc1 [compound 1, (S)-N-(2-hydroxy-1-phenylethyl)-5,5-dimethyl-2-((tetrahydro-2H-pyran-4-yl)amino)-5H-pyrrolo[3,4-d]pyrimidine-6(7H)-carboxamide]
4	CC1(C)c2cnc(NC3CCOCC3)nc2CN1C(=O)N[C@H](CO)c1cccc(Cl)c1 [compound 2, (S)-N-(1-(3-chlorophenyl)-2-hydroxyethyl)-5,5-dimethyl-2-((tetrahydro-2H-pyran-4-yl)amino)-5H-pyrrolo[3,4-d]pyrimidine-6(7H)-carboxamide]
894	CC1(C)c2cnc(NC3CCOCC3)nc2CN1C(=O)NCc1cccnc1 [compound 3, 5,5-dimethyl-N-(pyridin-3-ylmethyl)-2-((tetrahydro-2H-pyran-4-yl)amino)-5H-pyrrolo[3,4-d]pyrimidine-6(7H)-carboxamide]
18	CC1(C)c2cnc(NC3CCOCC3)nc2CN1C(=O)NCc1cccc(S(C)(=O)=O)c1 [compound 4, 5,5-dimethyl-N-(3-(methylsulfonyl)benzyl)-2-((tetrahydro-2H-pyran-4-yl)amino)-5H-pyrrolo[3,4-d]pyrimidine-6(7H)-carboxamide]
15500	CC1(C)c2cnc(NC3CCOCC3)nc2CN1C(=O)N[C@H]1CCCN(Cc2ccccc2F)C1 [compound 5, (S)-N-(1-(2-fluorobenzyl)piperidin-3-yl)-5,5-dimethyl-2-((tetrahydro-2H-pyran-4-yl)amino)-5H-pyrrolo[3,4-d]pyrimidine-6(7H)-carboxamide]
2340	CC1(C)c2cnc(NC3CCOCC3)nc2CN1C(=O)N[C@H]1CCCNC1 [compound 6, (S)-5,5-dimethyl-N-(piperidin-3-yl)-2-((tetrahydro-2H-pyran-4-yl)amino)-5H-pyrrolo[3,4-d]pyrimidine-6(7H)-carboxamide]
15300	CC1(C)c2cnc(NC3CCOCC3)nc2CN1C(=O)N[C@@H]1CCCNC1 [compound 7, (R)-5,5-dimethyl-N-(piperidin-3-yl)-2-((tetrahydro-2H-pyran-4-yl)amino)-5H-pyrrolo[3,4-d]pyrimidine-6(7H)-carboxamide]
82	CC1(C)c2cnc(NC3CCOCC3)nc2CN1C(=O)N[C@@H]1CCCN(Cc2ccccc2F)C1 [compound 8, (R)-N-(1-(2-fluorobenzyl)piperidin-3-yl)-5,5-dimethyl-2-((tetrahydro-2H-pyran-4-yl)amino)-5H-pyrrolo[3,4-d]pyrimidine-6(7H)-carboxamide]
23	CC1(C)c2cnc(NC3CCOCC3)nc2CN1C(=O)N[C@@H]1CC1c1ccccc1 (stereo partly drawn) [compound 9, 5,5-dimethyl-N-((1R)-2-phenylcyclopropyl)-2-((tetrahydro-2H-pyran-4-yl)amino)-5H-pyrrolo[3,4-d]pyrimidine-6(7H)-carboxamide]
722	CC1(C)c2cnc(NC3CCS(=O)(=O)CC3)nc2CN1C(=O)N[C@H](CO)c1ccccc1 [compound 10, (S)-2-((1,1-dioxidotetrahydro-2H-thiopyran-4-yl)amino)-N-(2-hydroxy-1-phenylethyl)-5,5-dimethyl-5H-pyrrolo[3,4-d]pyrimidine-6(7H)-carboxamide]
146	CC1(C)c2cnc(NC3CCC(F)(F)CC3)nc2CN1C(=O)N[C@H](CO)c1ccccc1 [compound 11, (S)-2-((4,4-difluorocyclohexyl)amino)-N-(2-hydroxy-1-phenylethyl)-5,5-dimethyl-5H-pyrrolo[3,4-d]pyrimidine-6(7H)-carboxamide]
375	CC1(C)c2cnc(NC3CCOC3)nc2CN1C(=O)N[C@H](CO)c1ccccc1 (stereo partly drawn) [compound 12, N-((S)-2-hydroxy-1-phenylethyl)-5,5-dimethyl-2-((tetrahydrofuran-3-yl)amino)-5H-pyrrolo[3,4-d]pyrimidine-6(7H)-carboxamide]
8	CC1(C)c2cnc(NC3CCOCC3)nc2CN1C(=O)NCc1cc(F)cc(Cl)c1 [compound 13, N-(3-chloro-5-fluorobenzyl)-5,5-dimethyl-2-((tetrahydro-2H-pyran-4-yl)amino)-5H-pyrrolo[3,4-d]pyrimidine-6(7H)-carboxamide]
328	CC1(C)c2cnc(NC3CCOCC3)nc2CN1C(=O)NCC1CCCCO1 (stereo not drawn) [compound 14, 5,5-dimethyl-N-((tetrahydro-2H-pyran-2-yl)methyl)-2-((tetrahydro-2H-pyran-4-yl)amino)-5H-pyrrolo[3,4-d]pyrimidine-6(7H)-carboxamide]
842	CC1(C)c2cnc(NC3CCOCC3)nc2CN1C(=O)NCC1CCCOC1 (stereo not drawn) [compound 15, 5,5-dimethyl-N-((tetrahydro-2H-pyran-3-yl)methyl)-2-((tetrahydro-2H-pyran-4-yl)amino)-5H-pyrrolo[3,4-d]pyrimidine-6(7H)-carboxamide]
362	CC1(C)c2cnc(NC3CCOCC3)nc2CN1C(=O)NCC1CCOCC1 [compound 16, 5,5-dimethyl-2-((tetrahydro-2H-pyran-4-yl)amino)-N-((tetrahydro-2H-pyran-4-yl)methyl)-5H-pyrrolo[3,4-d]pyrimidine-6(7H)-carboxamide]
67	CC1(C)c2cnc(NC3CCOCC3)nc2CN1C(=O)N[C@H](CO)C1CCCCC1 [compound 17, (S)-N-(1-cyclohexyl-2-hydroxyethyl)-5,5-dimethyl-2-((tetrahydro-2H-pyran-4-yl)amino)-5H-pyrrolo[3,4-d]pyrimidine-6(7H)-carboxamide]
2390	CC1(C)c2cnc(NC3CCOCC3)nc2CN1C(=O)NC1CCOCC1 [compound 18, 5,5-dimethyl-N-(tetrahydro-2H-pyran-4-yl)-2-((tetrahydro-2H-pyran-4-yl)amino)-5H-pyrrolo[3,4-d]pyrimidine-6(7H)-carboxamide]
21	CC1(C)c2cnc(NC3CCOCC3)nc2CN1C(=O)NCc1cc(F)cc(F)c1 [compound 19, N-(3,5-difluorobenzyl)-5,5-dimethyl-2-((tetrahydro-2H-pyran-4-yl)amino)-5H-pyrrolo[3,4-d]pyrimidine-6(7H)-carboxamide]
16	CC1(C)c2cnc(NC3CCOCC3)nc2CN1C(=O)NCc1cccc(F)c1 [compound 20, N-(3-fluorobenzyl)-5,5-dimethyl-2-((tetrahydro-2H-pyran-4-yl)amino)-5H-pyrrolo[3,4-d]pyrimidine-6(7H)-carboxamide]
6	CC1(C)c2cnc(NC3CCOCC3)nc2CN1C(=O)NCc1cccc(Cl)c1 [compound 21, N-(3-chlorobenzyl)-5,5-dimethyl-2-((tetrahydro-2H-pyran-4-yl)amino)-5H-pyrrolo[3,4-d]pyrimidine-6(7H)-carboxamide]
2	C[C@@H](NC(=O)N1Cc2nc(NC3CCOCC3)ncc2C1(C)C)c1cccc(Cl)c1 [compound 22, (R)-N-(1-(3-chlorophenyl)ethyl)-5,5-dimethyl-2-((tetrahydro-2H-pyran-4-yl)amino)-5H-pyrrolo[3,4-d]pyrimidine-6(7H)-carboxamide]
22	CC1(C)c2cnc(NC3CCOCC3)nc2CN1C(=O)NCc1ccc(F)cc1 [compound 24, N-(4-fluorobenzyl)-5,5-dimethyl-2-((tetrahydro-2H-pyran-4-yl)amino)-5H-pyrrolo[3,4-d]pyrimidine-6(7H)-carboxamide]

same assay, conditions: comparative example text; read-out: IC50 on ERK2

IC50 [nM]	SMILES
360	C[C@@H](NC(=O)N1Cc2cnc(NC3CCOCC3)nc2C1)c1ccccc1 [Comparative Example, reference compound]
